Test results from PMC8070648, “Simultaneous Visualization of ^161Tb- and ^177Lu-Labeled Somatostatin Analogues Using Dual-Isotope SPECT Imaging” (Pharmaceutics, 2021).
Where two headings read alike, the source gives them in different places.

Assay: Biodistribution in AR42J tumor-bearing nude mice
Assay type: in vivo
Details: female, CD-1 nude, mouse, iv, 1 nmol/mouse, total radioactivity, i.v. 5 MBq; for tissue uptake at 2 h: 2 h p.i.; for tissue uptake at 24 h: 24 h p.i.
Source text: Five-week-old female CD-1 nude mice were purchased from Charles River Laboratories (Sulzfeld, Germany).

[1] = AR42J tumor, read-out: AR42J Tumor
[2] = femoral muscle, read-out: Muscle
[3] = intestines, read-out: Intestines

## C[C@@H](O)[C@@H]1NC(=O)[C@H](CCCCN)NC(=O)[C@@H](Cc2c[nH]c3ccccc23)NC(=O)[C@H](Cc2ccc(O)cc2)NC(=O)[C@@H](NC(=O)[C@@H](Cc2ccccc2)NC(=O)CN2CCN(CC(=O)O)CCN(CC(=O)O)CCN(CC(=O)O)CC2)CSSC[C@@H](C(=O)N[C@H](CO)[C@@H](C)O)NC1=O [[^161Tb]Tb-DOTATOC, metal not drawn]
[1]
  tissue uptake at 2 h: 8.2 ± 0.2 %ID/g
  tissue uptake at 24 h: 3.8 ± 0.6 %ID/g
adrenals, read-out: Adrenals
  tissue uptake at 2 h: 0.25 ± 0.06 %ID/g
  tissue uptake at 24 h: 0.23 ± 0.2 %ID/g
blood, read-out: Blood
  tissue uptake at 2 h: ≤ 0.1 %ID/g
  tissue uptake at 24 h: ≤ 0.1 %ID/g
[2]
  tissue uptake at 2 h: ≤ 0.1 %ID/g
  tissue uptake at 24 h: ≤ 0.1 %ID/g
femur, read-out: Femur
  tissue uptake at 2 h: ≤ 0.1 %ID/g
  tissue uptake at 24 h: ≤ 0.1 %ID/g
heart, read-out: Heart
  tissue uptake at 2 h: ≤ 0.1 %ID/g
  tissue uptake at 24 h: ≤ 0.1 %ID/g
[3]
  tissue uptake at 2 h: 0.21 ± 0.13 %ID/g
  tissue uptake at 24 h: ≤ 0.1 %ID/g
kidneys, read-out: Kidneys
  tissue uptake at 2 h: 9.9 ± 1.4 %ID/g
  tissue uptake at 24 h: 5.2 ± 0.6 %ID/g
liver, read-out: Liver
  tissue uptake at 2 h: 0.17 ± 0.01 %ID/g
  tissue uptake at 24 h: ≤ 0.1 %ID/g
lung, read-out: Lung
  tissue uptake at 2 h: 0.27 ± 0.03 %ID/g
  tissue uptake at 24 h: 0.11 ± 0.01 %ID/g
pancreas, read-out: Pancreas
  tissue uptake at 2 h: 0.71 ± 0.07 %ID/g
  tissue uptake at 24 h: 0.18 ± 0.01 %ID/g
spleen, read-out: Spleen
  tissue uptake at 2 h: 0.11 ± 0.02 %ID/g
  tissue uptake at 24 h: ≤ 0.1 %ID/g
stomach, read-out: Stomach
  tissue uptake at 2 h: 0.74 ± 0.38 %ID/g
  tissue uptake at 24 h: 0.29 ± 0.11 %ID/g
